Reference: patent publication US12616671B2, “Use of rigosertib to treat RNA virus infections” (Icahn School of Medicine at Mount Sinai, priority 2020, dated 2026)

Legend:
[1] = tested on: SARS-CoV-2; assay: Inhibition of SARS-CoV-2 replication in Vero E6 cells (viral NP immunostaining, percent infection); conditions: for IC50: read-out: IC50 of inhibition of the replication of SARS-CoV-2, MOI 0.025, compound added 2 h before infection, 48 h incubation, NP immunostaining
[2] = tested on: Vero E6 cells; conditions: uninfected VeroE6 cells, MTT assay, same compound dilutions as viral replication assay

| SMILES | IC50 [1] [nM] | effect on viral replication ([1]; SARS-CoV-2, negative control, data not shown) | effect on the viability of Vero E6 cells [2] | fold more effective than Remdesivir (SARS-CoV-2 replication IC50) ([1]; ratio of IC50 values versus Remdesivir) |
| --- | --- | --- | --- | --- |
| CCN(CCO)CCCC(C)Nc1ccnc2cc(Cl)ccc12 (stereo not drawn) [Hydroxy-Chloroquine] | 733 | – | – | – |
| CN1CCN(c2ccc(Nc3ncc4cc(C#N)c(=O)n(C5CCCC5)c4n3)cc2)CC1 [ON123300] | – | no effect | – | – |
| CCC(CC)COC(=O)[C@H](C)N[P@](=O)(OC[C@H]1O[C@@](C#N)(c2ccc3c(N)ncnn23)[C@H](O)[C@@H]1O)Oc1ccccc1 [Remdesivir] | 826 | – | – | – |
| COc1cc(OC)c(/C=C/S(=O)(=O)Cc2ccc(OC)c(NCC(=O)O)c2)c(OC)c1 [Rigosertib] | 16 | – | little or no effect | approximately 50 fold |
